# Test results reported in patent US20110015080A1, “Solution-based methods for RNA expression profiling” (MASSACHUSETTS INSTITUTE OF TECHNOLOGY, priority 2005, published 2011).
# Where “and” joins values, the source holds several entries; their conditions need not be identical. Equal entries are not always repeated.
# System: HL60 (human promyelocytic leukemia) cells
# Assay: LMA-FlexMAP analysis of microtiter well cultures of HL60 cells treated with tretinoin or DMSO, KNN classification
# [1] = HL60 cells treated with tretinoin, Experiment 3, replicate samples
# [2] = HL60 microtiter plate wells tretinoin40-47 (replicates)
structure (smiles),measurement,setting,value
"CC1=C(/C=C/C(C)=C/C=C/C(C)=C/C(=O)O)C(C)(C)CCC1 [tretinoin, all-trans-retinoic acid]","FlexMap signal, ACTB (LUA#91)",[1],2538 and 2604.5 and 452 and 812 and 1191 and 2112.5 and 2760 and 2845 and 2391 and 144.5
same,"FlexMap signal, GAPDH_3 (LUA#95)",[1],2330.5 and 2534 and 579 and 1017 and 1438 and 2495.5 and 2680 and 2718 and 2148 and 172
same,"FlexMap signal, GAPDH_5 (LUA#93)",[1],1699 and 1739.5 and 261.5 and 439.5 and 741 and 1388 and 1787 and 1865 and 1714 and 97
same,"FlexMap signal, GAPDH_M (LUA#94)",[1],1342.5 and 1462 and 221.5 and 396 and 590.5 and 1179.5 and 1602 and 1586 and 1267.5 and 79
same,"FlexMap signal, NM_000147 (LUA#29)",[1],987 and 1072 and 95 and 188.5 and 323 and 713 and 1109 and 1156 and 905 and 43
same,"FlexMap signal, NM_000211 (LUA#39)",[1],1072 and 1160 and 204.5 and 356 and 501 and 939 and 1215 (2×) and 924.5 and 109
same,"FlexMap signal, NM_000250 (LUA#87)",[1],141 and 157 and 46 and 52 and 67 and 115 and 159 and 166 and 131 and 38
same,"FlexMap signal, NM_000414 (LUA#22)",[1],384 and 448 and 48 and 74 and 114 and 272.5 and 479 and 477.5 and 378 and 35
same,"FlexMap signal, NM_000433 (LUA#28)",[1],454 and 548 and 62 and 105 and 169 and 371.5 and 580.5 and 600.5 and 406 and 32
same,"FlexMap signal, NM_000584 (LUA#30)",[1],1878.5 and 1840 and 240 and 426 and 663 and 1369.5 and 1886 and 1908.5 and 1555 and 96.5
same,"FlexMap signal, NM_000884 (LUA#81)",[1],670 and 692 and 126 and 209 and 304 and 612 and 794.5 and 804 and 624 and 58
same,"FlexMap signal, NM_001034 (LUA#67)",[1],170 and 171 and 42 and 47 and 73 and 122 and 178 and 184 and 155 and 33
same,"FlexMap signal, NM_001101 (LUA#34)",[1],2622 and 2644 and 799 and 1279 and 1711 and 2759.5 and 2895 and 2880 and 2335 and 235
same,"FlexMap signal, NM_001469 (LUA#79)",[1],988.5 and 1104 and 141.5 and 246.5 and 395 and 731.5 and 1124 and 1134 and 921 and 75.5
same,"FlexMap signal, NM_001498 (LUA#18)",[1],397 and 391.5 and 40 and 71 and 121 and 262 and 386 and 382 and 279 and 30
same,"FlexMap signal, NM_001684 (LUA#23)",[1],52.5 and 60 (2×) and 30 and 31.5 and 31 and 52 and 66 and 49 and 25
same,"FlexMap signal, NM_001948 (LUA#84)",[1],63 and 62 and 34 and 38 (2×) and 50 and 61 and 59 and 54 and 33
same,"FlexMap signal, NM_002166 (LUA#25)",[1],169.5 and 207 and 37 and 51 and 74 and 132 and 188.5 and 211 and 170 and 29
same,"FlexMap signal, NM_002467 (LUA#90)",[1],571 and 552.5 and 136 and 162 and 239 and 409.5 and 576 and 644 and 527 and 86
same,"FlexMap signal, NM_002468 (LUA#40)",[1],367 and 421 and 57.5 and 93 and 132.5 and 303 and 450 and 473.5 and 357 and 36.5
same,"FlexMap signal, NM_002539 (LUA#74)",[1],276 and 278.5 and 46 and 74 and 209 and 271 and 323.5 and 225 and 36
same,"FlexMap signal, NM_002624 (LUA#36)",[1],1359 and 1343 and 253.5 and 500 and 700.5 and 1234 and 1402 and 1395 and 1167.5 and 79
same,"FlexMap signal, NM_002664 (LUA#38)",[1],1922 and 1934 and 383 and 702 and 1051.5 and 1832 and 2052 and 2064 and 1635.5 and 101
same,"FlexMap signal, NM_002970 (LUA#42)",[1],1316 and 1443 and 164 and 329 and 528 and 1106 and 1508 and 1570.5 and 1247 and 57
same,"FlexMap signal, NM_002982 (LUA#45)",[1],3449 and 3440 and 1175 and 1759 and 2328 and 3359 and 3548 and 3612.5 and 3101 and 373
same,"FlexMap signal, NM_003132 (LUA#68)",[1],431 and 428 and 74 and 117.5 and 194 and 367 and 461 and 482 and 344 and 38
same,"FlexMap signal, NM_003172 (LUA#19)",[1],208 and 227 and 45 and 68 and 97 and 199 and 234 and 250 and 179 and 33
same,"FlexMap signal, NM_003332 (LUA#43)",[1],2312 and 2346.5 and 591 and 1003 and 1446 and 2239 and 2492 and 2467 and 2041 and 177.5
same,"FlexMap signal, NM_003581 (LUA#62)",[1],40.5 and 39.5 and 40 (2×) and 36 and 42 and 47 and 46.5 and 46 and 33
same,"FlexMap signal, NM_003644 (LUA#17)",[1],181.5 and 53 and 72 and 75.5 and 220 and 238.5 and 179 and 39
same,"FlexMap signal, NM_003752 (LUA#82)",[1],116 and 113 and 54 (2×) and 66 and 93 and 105 and 123 and 96 and 41
same,"FlexMap signal, NM_003879 (LUA#24)",[1],65 and 69 and 23 and 29 and 36 and 51 and 77 and 76 and 59 and 34
same,"FlexMap signal, NM_004079 (LUA#21)",[1],113 and 124 (2×) and 34 and 41 and 53 and 88 and 122 and 121 and 30
same,"FlexMap signal, NM_004095 (LUA#59)",[1],169 and 205 and 46 and 66 and 86.5 and 166.5 and 221 and 208.5 and 147 and 36
same,"FlexMap signal, NM_004106 (LUA#44)",[1],1458 and 1423 and 235 and 457 and 672 and 1276 and 1500 and 1506 and 1234 and 68
same,"FlexMap signal, NM_004134 (LUA#76)",[1],268 and 286 and 47.5 and 67 and 93 and 182 and 284 and 297 and 240 and 36
same,"FlexMap signal, NM_004152 (LUA#31)",[1],1845 and 1993 and 319 and 601 and 837 and 1645 and 2020 and 2157.5 and 1685 and 90.5
same,"FlexMap signal, NM_004526 (LUA#88)",[1],153.5 and 172 and 43 and 61 and 76.5 and 187.5 and 191 and 138 and 37
same,"FlexMap signal, NM_004602 (LUA#32)",[1],255 and 274.5 and 61 and 87.5 and 116 and 185 and 270 and 293 and 288 and 46
same,"FlexMap signal, NM_004723 (LUA#20)",[1],281 and 329 and 61 and 105 and 151 and 271.5 and 350 and 352 and 258 and 37
same,"FlexMap signal, NM_004741 (LUA#89)",[1],397 and 326 and 70 and 77 and 131 and 204.5 and 315 and 415.5 and 300.5 and 58
same,"FlexMap signal, NM_004759 (LUA#37)",[1],242 and 139.5 and 32 and 41 and 60 and 119 and 132.5 and 213 and 159 and 28
same,"FlexMap signal, NM_005008 (LUA#77)",[1],242 and 301.5 and 53.5 and 87 and 114 and 239.5 and 315 and 316 and 232 and 41
same,"FlexMap signal, NM_005375 (LUA#86)",[1],548 and 553 and 131 and 196 and 334 and 547.5 and 602 and 531 and 86
same,"FlexMap signal, NM_005566 (LUA#85)",[1],539.5 and 610.5 and 89 and 117 and 183 and 197.5 and 597 and 632 and 489 and 45
same,"FlexMap signal, NM_005914 (LUA#60)",[1],525.5 and 804.5 and 102 and 218.5 and 314 and 594 and 914 and 889 and 716.5 and 44
same,"FlexMap signal, NM_005915 (LUA#72)",[1],46 and 42 and 25 and 27 and 30 and 35 and 40 and 37 and 38 and 29
same,"FlexMap signal, NM_005952 (LUA#66)",[1],204 and 199 and 43 and 56 and 74 and 143 and 200 and 197.5 and 156 and 34
same,"FlexMap signal, NM_005980 (LUA#73)",[1],160 and 157 (2×) and 32 and 43 and 52 and 102.5 and 166 and 132 and 34
same,"FlexMap signal, NM_006019 (LUA#35)",[1],810 and 792 and 73 and 140 and 227 and 497 and 747 and 787.5 and 655 and 34
same,"FlexMap signal, NM_006138 (LUA#56)",[1],87 and 95 and 37 and 40 and 49 and 67 and 97 and 102.5 and 86 and 38
same,"FlexMap signal, NM_006432 (LUA#27)",[1],1364 and 1394 and 190 and 358.5 and 574 and 1118 and 1397.5 and 1403 and 1160 and 68
same,"FlexMap signal, NM_006452 (LUA#71)",[1],52 and 60 and 25 and 37 and 37.5 and 43 and 57 and 71 and 44 and 23.5
same,"FlexMap signal, NM_006985 (LUA#58)",[1],48 and 59 (2×) and 31 and 32 and 37.5 and 45.5 and 52 and 46.5 and 30
same,"FlexMap signal, NM_007282 (LUA#16)",[1],46 and 62.5 and 27 and 29 and 30 and 42 and 53 and 61.5 and 58 and 28
same,"FlexMap signal, NM_014333 (LUA#26)",[1],613 and 656.5 and 74 and 128 and 211 and 427 and 674 and 705 and 572 and 41
same,"FlexMap signal, NM_014366 (LUA#61)",[1],217 and 294 and 38 and 61 and 89.5 and 191 and 291.5 and 299.5 and 235 and 33.5
same,"FlexMap signal, NM_014573 (LUA#70)",[1],138.5 and 144.5 and 40 and 45 and 56 and 93 and 156 and 161.5 and 123 and 38.5
same,"FlexMap signal, NM_015201 (LUA#57)",[1],208 and 198 and 40 and 49 and 64 and 139 and 197 and 228 and 156 and 31
same,"FlexMap signal, NM_018115 (LUA#63)",[1],1217 and 860.5 and 109.5 and 234 and 409 and 710.5 and 896 and 1206.5 and 927 and 61
same,"FlexMap signal, NM_018164 (LUA#69)",[1],148.5 and 149 and 37 and 46 and 67 and 139 and 150 and 156.5 and 133 and 36
same,"FlexMap signal, NM_018256 (LUA#83)",[1],638.5 and 688.5 and 178.5 and 177 and 268 and 371 and 633 and 804.5 and 779 and 151
same,"FlexMap signal, NM_018890 (LUA#33)",[1],737 and 769 and 82 and 151.5 and 240 and 534.5 and 760 and 762 and 652 and 41
same,"FlexMap signal, NM_019058 (LUA#75)",[1],102 and 129 and 37 and 48 and 56 and 90 and 126 and 97 and 34
same,"FlexMap signal, NM_020117 (LUA#78)",[1],487 and 502 and 65 and 114 and 184 and 371 and 519 and 543 and 415 and 45
same,"FlexMap signal, NM_021103 (LUA#41)",[1],629 and 2096 and 467.5 and 781.5 and 992 and 1953 and 2465.5 and 2408 and 495 and 142
same,"FlexMap signal, NM_021203 (LUA#80)",[1],445.5 and 471 and 65 and 109 and 165 and 355 and 480 and 514 and 369 and 46
same,"FlexMap signal, NM_021974 (LUA#64)",[1],776 and 891 and 136.5 and 255.5 and 403 and 781.5 and 929 and 940 and 667.5 and 55
same,"FlexMap signal, NM_024045 (LUA#65)",[1],112 and 127.5 and 35 and 40 and 57 and 92.5 and 135.5 and 110 and 29
same,"FlexMap signal, TFRC (LUA#92)",[1],252 and 255 and 54 and 66 and 90 and 168 and 256 and 272 and 213 and 45
same,ACTB LUA#91 FlexMap level,[2],344 and 2113 and 2976 and 3020 and 2200 and 2601 and 2521 and 1195
same,GAPDH_3 LUA#95 FlexMap level,[2],1659 and 3754 and 4065 and 4240 and 3880 and 3379 and 3353.5 and 1707.5
same,GAPDH_5 LUA#93 FlexMap level,[2],238 and 1501 and 2205.5 and 2064 and 1482 and 1768.5 and 1737 and 843
same,GAPDH_M LUA#94 FlexMap level,[2],642 and 3318 and 3783.5 and 3886 and 3205 and 3303 and 3248 and 1513
same,NM_000070 LUA#2 FlexMap level,[2],84.5 and 400 and 756 and 769.5 and 717.5 and 638.5 and 741 and 490.5
same,NM_000147 LUA#29 FlexMap level,[2],48 and 184 and 276.5 and 330.5 and 274 and 275 and 318 and 288
same,NM_000153 LUA#10 FlexMap level,[2],35 and 90 and 138 (2×) and 150 and 120 and 171.5 and 223
same,NM_000211 LUA#39 FlexMap level,[2],81 and 598.5 and 1229 and 1162.5 and 868 and 1061 and 973 and 440.5
same,NM_000250 LUA#87 FlexMap level,[2],261.5 and 1504 and 2135 and 2243 and 1820 and 2094 and 1863 and 1124
same,NM_000414 LUA#22 FlexMap level,[2],79.5 and 477 and 902 and 920 and 503 and 800 and 838 and 646
same,NM_000433 LUA#28 FlexMap level,[2],53 and 234 and 451.5 and 466 and 318 and 421 and 370.5 and 244.5
same,NM_000584 LUA#30 FlexMap level,[2],45 and 189 and 470 and 461 and 435 and 379 and 597 and 352
same,NM_000632 LUA#12 FlexMap level,[2],60 and 298 and 544 and 994 and 932 and 486 and 500 and 525.5
